Data taken from patent US20210330611A1, “THERAPY FOR NEUROLOGICAL DISEASES/DISORDERS” (priority 2020, published 2021).
Where a name gives a salt, the structure may show the parent alone. Read-outs that look alike come from different tables or passages of the source.

Legend:
[1] = tested on: fibrin-induced microglia activation; assay: Image-based assay of fibrin-induced microglia activation (HTS and dose response); format: cell-based, rat; details: for inhibition at 10 µM: Rattus norvegicus, Microglia, read-out: Fibrin % inhibition
[2] = tested on: LPS-induced microglia activation; assay: Image-based assay of LPS-induced microglia activation (HTS and dose response); format: cell-based, rat
[3] = tested on: fibrin- and LPS-induced microglia activation; assay: cells; format: cell-based, rat
primary rat microglia [4] = tested on: primary rat microglia;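 for Fibrin % cell toxicity: share of dead cells sized under 150 µm2 at 10 µM in fibrin-stimulated microglia HTS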
primary rat microglia [5] = tested on: primary rat microglia; remark: listed apart in the source;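 for Fibrin % cell toxicity: share of dead cells sized under 150 µm2 at 10 µM in fibrin-stimulated microglia HTS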
[6] = primary microglia HTS, 10 μM, fibrin-stimulated, cell size >800 μm^2 as marker of activation
[7] = Rattus norvegicus, Microglia, primary microglia HTS, 10 μM, LPS-stimulated, cell size >800 μm^2 as marker of activation; read-out: LPS % inhibition
[8] = HTS of 1907 compounds, quadrant by fibrin and LPS inhibition
[9] = Rattus norvegicus, Microglia, 48 h, read-out: LPS % inhibition
[10] = Rattus norvegicus, Microglia, read-out: LPS % inhibition
[11] = primary microglia HTS, fibrin stimulation, increased cell size (>800 μm^2) as marker of activation
[12] = quadrant by fibrin and LPS inhibition in HTS of 1907 compounds

SMILES | inhibition at 10 µM [1, 6] [%] | inhibition at 10 µM [2, 7] [%] | Quadrant (FIG. 5b) [3, 8] | Fibrin % cell toxicity (primary rat microglia [4]; rat) [%] | LPS % cell toxicity (primary rat microglia [5]; rat) [%] | inhibition at 10 µM [1] [%] | Quadrant (FIG. 5b) [3] | other results
CCOC(=O)C1=C[C@]2(CC)CCCN3CCc4c(n1c1ccccc41)[C@@H]32 [Vinpocetine] | -19 | 0 | Q4 | 0 | 0 | – | – | –
O=C(O)c1cc(/N=N/c2ccc(S(=O)(=O)Nc3ccccn3)cc2)ccc1O [Sulfasalazine] | -29 | 13 | Q4 | 0 | 0 | – | – | –
OC(Cn1cncn1)(Cn1cncn1)c1ccc(F)cc1F [Fluconazole] | – | – | – | 0 | 0 | 3 | Q4 | inhibition at 10 µM [2, 9]: 19%
Nc1nc(N)c2nc(-c3ccccc3)c(N)nc2n1 [Triamterene] | 40 | 24 | Q4 | 1 | 0 | – | – | –
CO[C@H]1/C=C/O[C@@]2(C)Oc3c(C)c(O)c4c(c3C2=O)C2=NC3(CCN(CC(C)C)CC3)NC2=C(NC(=O)/C(C)=C\C=C\[C@H](C)[C@H](O)[C@@H](C)[C@@H](O)[C@@H](C)[C@H](OC(C)=O)[C@@H]1C)C4=O [Rifabutin] | – | – | – | 0 | 0 | – | – | inhibition at 10 µM ([1]; primary microglia HTS, fibrin stimulation, cell size >800 μm2 as marker of activation): -51%; inhibition at 10 µM ([2]; Rattus norvegicus, Microglia, 48 h; read-out: LPS % inhibition): 2%; Quadrant (FIG. 5b) ([3]; classification by fibrin and LPS inhibition in HTS): Q4
Cc1c(C)c2c(c(C)c1O)CCC(C)(CCCC(C)CCCC(C)CCCC(C)C)O2 (stereo not drawn) [Alpha-tochopherol] | – | – | – | – | – | – | – | Fibrin % inhibition ([1]; primary microglia HTS, fibrin stimulation, compounds at 10 μM): 18%; LPS % inhibition ([2]; primary microglia HTS, LPS stimulation, compounds at 10 μM): 21%; Quadrant (FIG. 5b) ([3]; quadrant by fibrin and LPS inhibition, HTS at 10 μM): Q4; Fibrin % cell toxicity (primary rat microglia [4]): 0%; LPS % cell toxicity (primary rat microglia [5]): 0%
CCCC(C)C1(CC)C(=O)NC(=S)NC1=O (centres unmarked) [Thiopental] | – | – | – | 0 | 0 | 3 | Q4 | inhibition at 10 µM [2, 10]: 13%
OCCN1CCN(CCCN2c3ccccc3Sc3ccc(C(F)(F)F)cc32)CC1 [Fluphenazine] | – | – | – | 1 | 0 | 7 | Q4 | inhibition at 10 µM [2, 9]: 20%
C=C(c1ccc(C(=O)O)cc1)c1cc2c(cc1C)C(C)(C)CCC2(C)C [Bexarotene] | – | – | – | 1 | 1 | – | – | inhibition at 10 µM ([1]; primary HTS, 10 μM, fibrin-stimulated primary microglia): -3%; inhibition at 10 µM ([2]; Rattus norvegicus, Microglia, primary HTS, 10 μM, LPS-stimulated primary microglia; read-out: LPS % inhibition): 10%; Quadrant (FIG. 5b) ([3]; primary HTS, 10 μM): Q4
CN(Cc1cnc2nc(N)nc(N)c2n1)c1ccc(C(=O)N[C@@H](CCC(=O)O)C(=O)O)cc1 [Methotrexate] | – | – | – | 1 | 0 | – | – | inhibition at 10 µM [1, 11]: -32%; inhibition at 10 µM ([2]; Rattus norvegicus, Microglia, 48 h, primary microglia HTS, LPS stimulation; increased cell size (>800 μm^2) as marker of activation; read-out: LPS % inhibition): -4%; Quadrant (FIG. 5b) [3, 12]: Q4
CC(=O)[C@]1(O)Cc2c(O)c3c(c(O)c2[C@@H](O[C@H]2C[C@H](N)[C@H](O)[C@H](C)O2)C1)C(=O)c1ccccc1C3=O.Cl [Idarubicin, Idarubicin Hydrochloride] | – | – | – | – | – | – | – | Fibrin % inhibition [1, 11]: 106%; LPS % inhibition ([2]; primary microglia HTS, LPS stimulation; increased cell size (>800 μm^2) as marker of activation): 106%; Quadrant (FIG. 5b) [3, 12]: Q2; Fibrin % cell toxicity (primary rat microglia [4]): 90%; LPS % cell toxicity (primary rat microglia [5]): 40%
Cc1cc(C)nc(NS(=O)(=O)c2ccc(N)cc2)n1 [Sulfamethazine] | -9 | 14 | Q4 | 0 | 0 | – | – | –
Oc1ccc2c3c1O[C@H]1[C@@H](O)CC[C@@]4(O)[C@@H](C2)N(CC2CCC2)CC[C@]314 [Nalbuphine Hydrochloride] | – | – | – | 1 | 0 | – | Q4 | Fibrin % inhibition [1]: −11%; LPS % inhibition [2]: 15%
NCCNCCNCCN [Triethylenetetramine] | – | – | – | 1 | 0 | 3 | Q4 | inhibition at 10 µM [2, 10]: 10%
Clc1ccc(Nc2nnc(Cc3ccncc3)c3ccccc23)cc1 [Vatalanib] | -26 | -3 | Q4 | 1 | 0 | – | – | –
N=C(N)c1ccc(OCCCCCOc2ccc(C(=N)N)cc2)cc1 [Pentamidine] | – | – | – | 1 | 1 | 6 | Q4 | inhibition at 10 µM [2, 9]: 33%
